US20040005311A1, “Dietary supplement compositions” (priority 2003, published 2004)

System: Alzheimer's disease-related / dementia-related symptoms
Assay: Dietary supplementation of dementia subjects (case accounts by caregiver and physician)
Format: in vivo, human
Conditions: Subject #3; diet also supplemented with yellow corn, pineapple and tomato sauce products
Procedure: Prior to addressing the patient's dementia problem, a complete diagnosis of the subject was performed by a qualified physician.
The diets of these four subjects were also supplemented, to varying degrees, with yellow corn, pineapple and tomato sauce products.

For `CC(C)=CCC/C(C)=C/C=C/C(C)=C/C=C/C(C)=C/C=C/C=C(C)/C=C/C=C(C)/C=C/C=C(\C)CCC=C(C)C` [lycopene], the “symptoms (memory loss, anxiety, eating less)” value was “still exhibiting reduced symptoms”.
